In US11311513B2, “Methods, agents, and compositions for the treatment of acute myeloid leukemia” (UNIVERSITY OF CINCINNATI, priority 2017, dated 2022):
Like-named read-outs stand apart in the source and are kept apart here.

Tests used:
[1] = test system: TET1; test: TET1 expression by qPCR in AML cell lines; type: cell-based
Procedure: FIG. 1. […] Cell viability was analyzed by MTS 48 hours post-treatment. […] TET1 expression levels were detected by qPCR 48 hrs post-treatment. […] TET1 expression levels (e) and cell viability (f) were detected 24 hrs post-treatment. *, P<0.05, two-tailed t-test. MM6, MONOMAC-6. Error bar indicates SD of triplicate experiments.
Total RNA was extracted with the miRNeasy extraction kit (Qiagen) and was used as template for quantitative RT-PCR (qPCR) analysis.

[2] = test system: binding of STAT3/5 to TET1 promoter; test: ChIP-qPCR in MONOMAC-6 cells; type: cell-based; conditions: 500 nM, 48 hrs
Procedure: ChIP assay was conducted as described previously (Barry, S. P., et al., STAT3 modulates the DNA damage response pathway, Int J Exp Pathol 91:506-14 (2010)), with SABiosciences Corporation's ChampionChIP One-Day kit (Qiagen, Frederick, Md.) following the manufacturer's protocol. Chromatin from MONOMAC-6 cells were cross-linked, sonicated into an average size of ˜500 bp, and then immunoprecipitated with antibodies against STAT3 (Santa Cruz, Dallas, Tex.), STAT5 (BD Biosciences, San Jose, Calif.), or IgG (Abcam, Cambridge, Mass.). Purified DNA was amplified by real-time qPCR using primers targeting the promoter of TET1 as described before (Huang, H., et al., TET1 plays an essential oncogenic role in MLL-rearranged leukemia, Proc Natl Acad Sci USA 110:11994-99 (2013)). Sequences of qPCR primers are: Site 1 forward: 5′-[…]-3′ (SEQ ID NO: 3), reverse: 5′-[…]-3′ (SEQ ID NO: 4); Site 2 forward: 5′-[…]-3′ (SEQ ID NO: 5), reverse: 5′-[…]-3′ (SEQ ID NO: 6); Site 3 forward: 5′-[…]-3′ (SEQ ID NO: 7), reverse: 5′-[…]-3′ (SEQ ID NO: 8); Site 4 forward: 5′-[…]-3′ (SEQ ID NO: 9); reverse: 5′-[…]-3′ (SEQ ID NO: 10).

[3] = Maximum tolerated dose and median lethal dose; type: in vivo
[4] = test system: FLT3-ITD/NPM1^mut AML; test: FLT3-ITD/NPM1mut AML secondary BMT mouse model; type: in vivo, mice; conditions: 2.5 mg/kg i.p. once per day for 10 days; for median survival: control 21 days
Procedure: FIG. 4. […] (a) Structures of NSC-370284 and UC-514321. […] Cells were treated with drugs at indicated doses. Cell viability was detected by MTS 48 hrs post-treatment. Error bar indicates SD of triplicate experiments. […] Secondary BMT recipient mice were transplanted with primary leukemic BM cells with MLL-AF9 (f) or AML-ETO9a (g). […] Kaplan-Meier curves are shown. The P values were determined by log-rank test. […] Secondary BMT recipient mice were transplanted with primary leukemic BM cells with MLL-AF10 or FLT3-ITD/NPM1^mut. […] Kaplan-Meier curves are shown. The P values were determined by log-rank test. (j) Wright-Giemsa staining of mouse PB and BM, or H&E staining of mouse spleen and liver of MLL-AF9 AML secondary BMT recipients with or without drug treatment.
(§1) Secondary mouse BMT was carried out as described previously. […] For the “5+3” treatment, AraC (Cytarabine, Bedford Laboratories) and DNR (Daunorubicin, Sigma-Aldrich) were reconstituted with PBS, filtered, and stored in aliquots at −20° C. The “5+3” therapy regimen consists of five consecutive daily doses of 50 mg/kg AraC along with 3 mg/kg DNR daily during the first three days of treatment. Drugs were delivered by tail vein and intraperitoneal injection. Weights were taken daily during treatment and doses were recalculated to ensure the mice received a consistent dose of 50 mg/kg AraC and 3 mg/kg DNR every treatment.

[5] = test system: MLL-AF9-induced AML; test: MLL-AF9 AML secondary BMT mouse model; type: in vivo, mice; conditions: for mice cured / median survival: 2.5 mg/kg i.p. once per day for 10 days; for median survival: control 49 days
Procedure: FIG. 2. […] The secondary BMT recipient mice were transplanted with leukemic BM blast cells collected from primary MLL-AF9 AML mice. […] Kaplan-Meier curves are shown. The P values were determined by log-rank test. (b) Wright-Giemsa staining of mouse peripheral blood (PB) and BM, or hematoxylin and eosin (H&E) staining of mouse spleen and liver of the treated or control leukemic mice. (c,d) Tet1/2/3 gene expression levels (c) or Tet1 protein level (d) in BM blast cells of the treated or control leukemic mice. *, P<0.05, two-tailed t-test. Error bar indicates SD of triplicate experiments. […] The secondary BMT recipient mice were transplanted with leukemic BM blast cells collected from the primary AE9a-AML mice. […] Kaplan-Meier curves are shown. The P values were determined by log-rank test.
as §1

[6] = test system: MONOMAC-6 cells; test: MTS cell viability, MONOMAC-6; type: cell-based; conditions: 48 hrs
Procedure: In order to identify chemical compounds that may target TET1 signaling, the drug-sensitivity/gene expression database of a total of 20,602 chemical compounds in the NCI-60 collection of cancer cell samples was searched.
All cell lines were authenticated through STR profiling yearly.
These experiments were conducted as described previously (Jiang, X., et al., Blockade of miR-150 Maturation by MLL-Fusion/MYC/LIN-28 Is Required for MLL-Associated Leukemia, Cancer Cell 22:524-35 (2012); Li, Z., et al., miR-196b directly targets both HOXA9/MEIS1 oncogenes and FAS tumour suppressor in MLL-rearranged leukaemia, Nat Commun 2:688 (2012)) with ApoLive-Glo Multiplex Assay Kit, or CellTiter 96 AQueous Non-Radioactive Cell Proliferation Assay Kit (Promega, Madison, Wis.).

COc1cc(C(c2cc3c(cc2O)OCO3)N2CCCC2)cc(OC)c1OC (centres unmarked) [NSC-370284, 6-(1-Pyrrolidinyl(3,4,5-trimethoxyphenyl)methyl)-1,3-benzodioxol-5-ol]
TET1 transcription ([1]; 25 nM, 24 hours, MONOMAC-6, THP-1 and KOCL-48 cells): significant down-regulation
level of TET1 expression ([1]; TET1-high AML cells, 300 nM, qPCR 48 hrs): significantly repressed
binding of STAT3 and STAT5 on the TET1 loci/promoter [2]: could be disturbed
LD50 ([3]; C57BL/6, mouse, in vivo, ip, C57BL/6, I.P., read-out: LD50): ~123 mg/kg
MTD ([3]; C57BL/6, mouse, in vivo, ip, mice, I.P., read-out: maximum tolerated dose): 65 to 85.6 mg/kg
Number of Death ([3]; I.P. 65 mg/kg, 10 exposed): 0
Number of Death ([3]; I.P. 85.6 mg/kg, 10 exposed): 1
Number of Death ([3]; I.P. 113.5 mg/kg, 10 exposed): 3
Number of Death ([3]; I.P. 150 mg/kg, 10 exposed): 6
Number of Death ([3]; I.P. 200 mg/kg, 10 exposed): 10
median survival [4]: 34 days
mice cured [5]: 57%
median survival [5]: > 200 days
IC50 ([6]; Homo sapiens, MONO-MAC-6, MONOMAC-6 cells, unit inferred, read-out: IC50 MMC6): 0.385 nM

CC(C)(C)c1cc(C(c2cc3c(cc2O)OCO3)N2CCOCC2)cc(C(C)(C)C)c1O (centres unmarked) [UC-514321, 6-{[4-Hydroxy-3,5-bis(2-methyl-2-propanyl)phenyl](4-morpholinyl)methyl}-1,3-benzodioxol-5-ol]
expression of TET1, TET2, TET3 ([1]; MONOMAC-6 cells, 500 nM, 48 hrs): significantly repressed expression of TET1, but not TET2 or TET3
binding of STAT3 and STAT5 on the TET1 loci/promoter [2]: remarkable repression
MTD ([3]; C57BL/6, mouse, in vivo, ip): 65 to 85.6 mg/kg
Number of Death ([3]; C57BL/6, mouse, in vivo, ip, 65 mg/kg): 0
Number of Death ([3]; C57BL/6, mouse, in vivo, ip, 85.6 mg/kg): 1
Number of Death ([3]; C57BL/6, mouse, in vivo, ip, 113.5 mg/kg): 2
Number of Death ([3]; C57BL/6, mouse, in vivo, ip, 150 mg/kg): 7
Number of Death ([3]; C57BL/6, mouse, in vivo, ip, 200 mg/kg): 10
LD50 ([3]; C57BL/6, mouse, in vivo, ip, LD50): ~123 mg/kg
recipients that developed full-blown AML within 50 days [4]: none
median survival [4]: > 50 days
mice cured [5]: 66.7%
median survival [5]: > 200 days
prolongation of median survival ([5]; versus control, 2.5 mg/kg i.p. 10 days): over 3 folds
MONOMAC-6 cell viability among 30 analogues ([6]; MTS): most significantly repressed
